Assay results taken from patent US5334595A, “Pyrazoloquinolones as anticancer agents” (priority 1992, dated 1994).

What was measured:
[1] = In vivo antitumor assay, B16(ip); design: species or system mice; settings: mouse, in vivo, drug ip
Source text: (§1) Mice: Inbred: C3H/He and NCR-nu; and Hybrids: B6D2F1 (C57BL/6 females×DBA/2 males, CD2F1 (Balb/c females×DBS/2 males) and B6C3fl (C57BL/6×C3H) were bred at Wayne State University from strains obtained from the Frederick Cancer Research Facility, Frederick, Maryland or purchased from commercial suppliers.
(§2) Tumors: Murine Tumor: P388 and an adriamycin-resistant (ADR) subline P388/ADR leukemia and the following transplantable solid tumors of mice were used for in vivo testing: B16 melanoma (B16), pancreatic ductal adenocarcinoma No. 03 (Pane 03), colon adenocarcinoma No. 38 (colo 38), lung carcinoma No. 12 (LC 12), mammary ductal adenocarcinoma No. 16/C (Mam16C) and an adriamycin-resistant subline Mam16C/ADR. Human tumor: A single human tumor, mammary carcinoma MX-1 was used for in vivo testing. All tumors are in the Developmental Therapeutics Program frozen tumor respository, maintained by the Biological Testing Branch, Frederick Maryland. Each has a detailed description, code identification number, and list of references at the National Tumor Repository. Murine tumors were maintained in the mouse strain of origin and were transplanted in the appropriate F1 hydrid (or the strain of origin) for therapy trials. Human mammary carcinoma MX-1 (MX1) was maintained as a subcutaneous implant in either athymic Swiss (Cr: NIH(S)-nu) or athymic random bred (NCR-nu) mice and transplanted in NCR-nu for therapy trials.
(§3) For P388 and P388/ADR leukemia studies the tumor cells were implanted either interperitoneally (IP) or intravenously (IV) on day zero and treatment was started on day one. For B16 melanoma (B16) studies, the tumor cells were implanted IP on day zero and treatment was started on day one. Titered controls were also included to facilitate the calculation of tumor cell kill. For mammary carcinoma MX-1 studies, tumors were implanted with 1) subcutaneously (sc) (14-mg fragment of sc donor tumor) in the axillary region or 2) under the subrenal capsule (SRC) (10×10×10 ocular micrometer unit fragment of sc donor tumor).
(§4) Quantitative end points used to assess antitumor activity included % Increased Life Span (% ILS), Tumor Cell Kill (Log10 kill), and Tumor Growth Inhibition (T/C). Long Term Survivors (45 or 60 day) were excluded from calculations of %ILS and Tumor Cell Kill.
(§5) Endpoints were calculated as follows: [formula] where Dt is the median day of death for treated and Dc is the median day of death for control groups. A % ILS ≥20 or ≥25 for P388 and B16 intraperitoneal models, respectively, is indicative of a significant degree of antitumor activity. A % ILS ≥75 or ≥50 for P388 and B16 intraperitoneal models, , respectively, is indicative of a high degree of antitumor activity and is the level used by National Cancer Institute to justify further development if other requirements are met (termed DN-2 level activity). Minimum quantitative activity limits for additional P388 models (e.g. P388/ADR and P388, IV) have not been defined.

[2] = test system: B16 melanoma (B16); experiment: In vivo antitumor assay, B16(ip); design: species or system mice; settings: drug ip; for ILS %: qd 1,5,9, exp SD-17, at dose of MTD; for Log Kill: qd 1,5,9, exp SD-17, log10
Source text: as §1, §2, §3, §4, §5

[3] = In vivo antitumor assay, MXI(sc); design: species or system human; settings: mouse, in vivo, drug ip, qd 1,5,9, exp SD-9
Source text: as §1, §2, §3, §4
(§6) Tumors were measured with a caliper once or twice weekly (as needed) until either tumors exceeded 1600 mg or cure was assured. Tumor weights were estimated from two-dimensional measurements: Tumor Weight (mg)=(a×b^2) / 2, where a and b are the tumor length and width (ram) respectively. Measurements were carried out simultaneously in both treatment and control groups. When the control group tumors reached approximately 750-1500 mg in size (median of group), the median tumor weight of each group was determined (including zeros). The T/C value in percent is an indication of antitumor effectiveness. The % T/C was calculated from the following formula for solid murine tumor models: [formula] where T and C are median tumor weights of the treatment and control groups, respectively. […] A T/C value <10% is indicative of a high degree of antitumor activity and is the level used by National Cancer Institute to justify further development if other requirements are met (termed DN-2 level activity). By convention the T/C value for the mammary carcinoma MX-1 models is calculated by the parameter of change in tumor weight . The % T/C was calculated from the following formula for MX-1 models [formula] where ΔT and ΔC are the change in mean tumor weight of the test and control groups, respectively, and T (initial) is the initial mean tumor weight of the test group. […] A reproducible % T/C ≤10 is considered significant activity.

[4] = test system: mammary carcinoma MX-1; experiment: In vivo antitumor assay, MXI(sc); design: species or system human; settings: drug ip, qd 1,5,9, exp SD-9, change in tumor weight
Source text: as §1, §2, §3, §4, §6

[5] = In vivo antitumor assay, MXI(src); design: species or system mice; settings: mouse, in vivo, drug ip
Source text: as §1, §2, §3, §4, §6

[6] = test system: mammary carcinoma MX-1; experiment: In vivo antitumor assay, MXI(src); design: species or system mice; settings: drug ip, qd 1,5,9, exp SD-18, change in tumor weight
Source text: as §1, §2, §3, §4, §6

[7] = In vivo antitumor assay, Panc03(sc); design: species or system mice; settings: mouse, in vivo
Source text: as §1, §2
Chemotherapy: For pancreatic ductal adenocarcinoma No. 3, colon adenocarcinoma No. 38 (colo 38), lung carcinoma No. 12 LC 12) and both adriamycin-sensitive (RP) and-resistant (ADR) mammary ductal adenocarcinoma No. 16 (Mam16) tumors, bilateral tumor implants were used to help ensure a more uniform tumor burden per mouse (thus reducing the requirement for greater numbers of mice per group). The animals necessary to begin an experiment were pooled, implanted bilaterally s.c. on day zero with 30-60 mg tumor fragments using a 12-gauge trocar, and again pooled before randomization to the various treatment and control groups. Chemotherapy was started within three days after tumor implantation while the number of cells per mouse was relatively small (1×10^7 -1×10^8 cells).
as §4
The log10 cell kill was calculated from the following formula: [formula] where T-C is the tumor difference in the median day of death between the treated (T) and the control (C) groups and Td is the tumor doubling time (in days), the latter estimated from the best fit straight line from a log-linear growth plot of the control-group tumors in exponential growth. The conversion of the T-C values to log10 cell kill is possible because the Td for tumors regrowing post-treatment approximated the Td values of the tumors in untreated control mice.
Tumors were measured with a caliper once or twice weekly (as needed) until either tumors exceeded 1600 mg or cure was assured. Tumor weights were estimated from two-dimensional measurements: Tumor Weight (mg)=(a×b^2) / 2, where a and b are the tumor length and width (ram) respectively. Measurements were carried out simultaneously in both treatment and control groups. When the control group tumors reached approximately 750-1500 mg in size (median of group), the median tumor weight of each group was determined (including zeros). The T/C value in percent is an indication of antitumor effectiveness. The % T/C was calculated from the following formula for solid murine tumor models: [formula] where T and C are median tumor weights of the treatment and control groups, respectively. A T/C equal to or less than 42% is considered significant antitumor activity. […]

[8] = qd 1,5,9, exp SD-17, MTD not achieved, maximum dose tested

Row | Structure (SMILES) | MTD ([1]; qd 1,5,9, exp SD-17) [mg/kg] | ILS % [2] [%] | Log Kill [2] | MTD [3] [mg/kg] | T/C % [4] [%] | MTD ([5]; qd 1,5,9, exp SD-18) [mg/kg] | T/C % [6] [%] | MTD ([7]; iv, Panc03(sc), drug iv, qd 3,4, exp 1005A, read-out: MTD) [mg/kg] | MTD ([7]; iv, Panc03(sc), drug iv, qd 3,6,9, exp 1146, read-out: MTD) [mg/kg] | MTD ([7]; iv, Panc03(sc), drug iv, qd 3, exp 895A, read-out: MTD) [mg/kg] | MTD ([7]; iv, Panc03(sc), drug iv, qd 3-9, exp 910, read-out: MTD) [mg/kg] | MTD ([7]; iv, MTD) [mg/kg] | MTD ([7]; MTD) [mg/kg] | MTD [1, 8] [mg/kg] | MTD ([5]; qd 1,5,9, exp SD-18, MTD not achieved, maximum dose tested) [mg/kg]
1 | Cc1cc(-c2c(F)cc3c4nn(CCN(C)C)c(=O)c-4cn(C4CC4)c3c2F)cc(C)n1.O=C(O)/C=C/C(=O)O [Example 1, 5-Cyclopropyl-6,8-difluoro-2,5-dihydro-2-[2-(dimethylamino)-ethyl]-7-(2,6-dimethyl-4-pyridinyl)-3H-pyrazolo[4,3-c]quinolin-3-one (E)-2-butendioate (1:1)] | 78 | 85 | 1.9 | 78 | 37 | 52 | 6 | 52 | 34 | 35 | 45 |  |  |  | 
2 | Cc1cc(-c2c(F)cc3c4nn(CCCN(C)C)c(=O)c-4cn(C4CC4)c3c2F)cc(C)n1 [Example 14] | 28 | 58 | 1.3 | 42 | 53 |  |  |  |  |  |  | 107 |  |  | 
3 | Cc1cc(-c2c(F)cc3c4nn(CCNCCO)c(=O)c-4cn(C4CC4)c3c2F)cc(C)n1 [Example 17] | 180 | 61 | 1.4 | 270 | 67 |  |  |  |  |  |  |  | 1410 |  | 
4 | Cc1cc(-c2c(F)cc3c4nn([C@H]5CC[C@@H](N(C)C)CC5)c(=O)c-4cn(C4CC4)c3c2F)cc(C)n1 [Example 51a] |  | 29 | 0.67 |  |  |  | 5 |  |  |  |  | 63 |  | > 15 | > 23
5 | Cc1cc(-c2c(F)cc3c4nn([C@H]5CC[C@H](N(C)C)CC5)c(=O)c-4cn(C4CC4)c3c2F)cc(C)n1 [Example 51b] |  | 47 | 1.0 |  |  | 99 | 2 |  |  |  |  |  | > 390 | > 99 | 
6 | Cc1cc(-c2c(F)cc3c4nn([C@H]5CC[C@@H](N)CC5)c(=O)c-4cn(C4CC4)c3c2F)cc(C)n1 [Example 56a, 2-(Cis-4-Aminocyclohexyl)-5-cyclopropyl-6,8-difluoro-2,5-dihydro-7-(2,6-dimethyl-4-pyridinyl)-3H-pyrazolo-[4,3-c]quinolin-3-one] |  |  |  |  |  |  |  |  |  |  |  | 110 |  |  | 
